Test results from patent US20260132128A1, “COMPOUND FOR RECOVERING P53 MUTATION FUNCTION AND USE THEREOF” (SHENZHEN ZHONGGE BIOLOGICAL TECHNOLOGY CO., LTD., priority 2022, published 2026).
Marks after values point to notes of the source that are not given here.

Columns and labels:
p53 Y220C [1] = target: T1, p53 Y220C (Homo sapiens, UniProt P04637, P309S/R273H/Y220C); assay: DNA binding test (HTRF): binding of P53Y220C protein to DNA; type: biochemical; conditions: HTRF, activation of p53 Y220C (aa 94-312) binding to biotin DNA
T1 construct: a truncated mutant containing only amino acids 94-312 of p53; made in house; host or cells: E. coli

p53 Y220C [2] = target: T2, p53 Y220C (Homo sapiens, UniProt P04637, Y220C); assay: as above; type: biochemical; conditions: multiple ratio of EC50 of the compound to the reference compound, DNA binding test
T2 construct: a truncated mutant containing only amino acids 94-312 of p53; made in house; host or cells: E. coli

BxPC-3 cells = assay: BxPC-3 cell proliferation test (CTG); type: cell-based; conditions: Homo sapiens, 144 h, 6 days
Procedure: To detect the inhibitory effects of the aforementioned compounds on the proliferation ability of BxPC-3 cells, 125 BxPC-3 cells (ATCC®CRL-1687) were seeded into a 384-well plate (Corning 3765), 35 μL per well, and placed in a constant temperature incubator at 37° C. and 5% CO2 overnight. Then, 40 nL of the compound was added to the 384-well plate using an Echo 655 Liquid Handler, with a maximum final concentration of 10 μM, 1:3 serial dilution, and in a total of 10 doses. Incubation was performed at 37° C., 5% CO2 for 6 days. The plate was taken out from the incubator and equilibrated at room temperature for 10 minutes. 20 μL of CTG (Promage G7572) was added to each well of the plate according to the platemap. The plate was centrifuged at 1000 rpm for 1 minute. The lysis of cells was induced by mixing on a shaker for 2 minutes. The plate was centrifuged at 1000 rpm for 1 minute. Incubation was performed at room temperature for 10 minutes to stabilize luminescence signals. Luminescence values were recorded by Envision (PerkinElmer 2105-0020). GraphPad 9.0 was used to fit the inhibition rate and compound concentration into a nonlinear regression curve (dose response-variable slope) to calculate GI50, inhibition rate={1−(A−B)/(C−B)}*100%, A=signal value of compound; B=average signal of blank control; C=average signal of negative control (wherein the negative control was 0.1% DMSO).

NUGC-3 cells = assay: NUGC-3 cell proliferation assay (CTG); type: cell-based, human; conditions: for GI50: Homo sapiens, NUGC-3, 144 h, 6 days, CTG; for Compound GI50 (nM)/Reference compound GI50 (nM): multiple ratio of GI50 of the compound to the reference compound
Outline: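 NUGC-3 cells (250/well), plated overnight, were exposed 6 days at 37° C to compound, 10 doses of 1:3 dilutions from 10 μM top final. Viability by CellTiter-Glo luminescence; inhibition relative to 0.1% DMSO and blank, GI50 from variable-slope nonlinear fit.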

[3] = Caco-2 cell permeability test; type: in vitro ADME; conditions: human, pH 7.4, Caco-2, 10 μM; for Papp A→B at 120 min, 10 μM: A to B; for Papp B→A at 120 min, 10 μM: B to A
Procedure: Caco-2 cells (ATCC, Cat. No. HTB-37) were inoculated to a 96-well plate (Corning HTS Transwell, Cat. No. 3391) at 1.25×10^5/cm2, and the culture medium (DMEM+10% FBS+1% Penicillin-Streptomycin Liquid (100×)+1% NEAA) was replaced every 3 to 4 days. The plate was placed in an incubator at 37° C. with 5% CO2 until a confluent cell monolayer was formed after 21 to 28 days. Before the transport experiment, the culture medium was removed from the cell culture plate, and the plate was washed twice with pre-warmed HBSS buffer (10 mM HEPES, pH 7.4), and 100 μL of HBSS buffer was added to each well. After incubation at 37° C. for 30 minutes, the TEER value was measured using a cell resistance meter (Millicell-ERS2) to confirm the integrity and density of the monolayer cells. The HBSS buffer was discarded, the upper plate containing the cell monolayer membrane was transferred to the corresponding receiving plate, 10 mM test compound stock solution was diluted to a concentration of 10 μM with HBSS transport buffer containing 0.5% BSA, and it was added to the apical side (A side) and basolateral side (B side), respectively. Incubation was carried out for 120 min at 37° C., 5% CO2, and 95% relative humidity, and the permeation of the test compound from A side to B side or from B side to A side and the efflux rate of the compound were determined. The test compound and the reference compound were quantified by LC-MS/MS analysis based on the peak area ratio of analyte/internal standard. The apparent permeability coefficient Papp (cm/s) was calculated using the following formula:
[formula] • wherein, dCr/dt represented the functional relation between cumulative concentration of compound in receptor compartment and time; V represented the volume of solution in receptor compartment (0.1 mL at apical side, and 0.25 mL at basolateral side); A represented the transport surface area, i.e., the monolayer cell area was 0.0804 cm^2; CO represented the initial concentration of compound in donor compartment.
The efflux ratio was calculated using the following formula: […]
The percent recovery was calculated using the following formula:
[formula] [formula] • wherein, Vd represented the volume of donor compartment (0.1 mL on the apical side and 0.25 mL on the basolateral side); C and Cr represented the final concentrations of the transported compound in the donor and receptor compartment, respectively; Cc represented the compound concentration in cell lysate; Vc represented the volume of insert well (which was 0.1 mL in this experiment).

EC50 (p53 Y220C [1]) [nM]	GI50 (BxPC-3 cells) [nM]	efflux ratio at 120 min, 10 μM [3]	Papp A→B at 120 min, 10 μM [3] [×10⁻⁶ cm/s]	Papp B→A at 120 min, 10 μM [3] [×10⁻⁶ cm/s]	SMILES	Compound EC50 (nM)/Reference compound EC50 (nM) (p53 Y220C [2])	GI50 (NUGC-3 cells) [nM]	Compound GI50 (nM)/Reference compound GI50 (nM) (NUGC-3 cells)
500 to 1000	1000 to 5000				CNC(=O)c1ccc(NCC#Cc2nc3c(NC4CCOCC4)cccn3c2CC(F)(F)F)c(OC)c1 [Compound 8]	C (C: EC50 of the compound≥3*EC50 of the reference compound)	1000 to 5000	C (C: GI50 of the compound ≥ 3 * GI50 of the reference compound)
	< 1000	1.84	3.7	6.82	CNC(=O)c1ccc(NCC#Cc2nc3c(NC4CC[C@@H](N5CC6(COC6)C5)C[C@@H]4F)cccn3c2CC(F)(F)F)c(OC2CC2)c1 (some centres unmarked) [Compound 57]	B (B: EC50 of the reference compound<EC50 of the compound≤3.0*EC50 of the reference compound)		B (B: GI50 of the reference compound < GI50 of the compound ≤ 3.0 * GI50 of the reference compound)
< 100		1.79	3.54	6.34	CNC(=O)c1ccc(NCC#Cc2nc3c(NC4CCC(N5CCOCC5)C[C@@H]4F)cccn3c2CC(F)(F)F)c(OC)c1 (some centres unmarked) [Compound 44]	B (B: EC50 of the reference compound<EC50 of the compound≤3.0*EC50 of the reference compound)		C (C: GI50 of the compound ≥ 3 * GI50 of the reference compound)
100 to 500	< 1000				COc1cc(S(C)(=O)=O)ccc1NCC#Cc1nc2c(N[C@@H]3CCN(C)C[C@@H]3F)cccn2c1CC(F)(F)F [Compound 3]	A (A: EC50 of the compound≤EC50 of the reference compound)	< 1000	B (B: GI50 of the reference compound < GI50 of the compound ≤ 3.0 * GI50 of the reference compound)
500 to 1000	1000 to 5000				CNC(=O)c1ccc(NCC#Cc2nc3c(NC4CCN(C)CC4)nccn3c2CC(F)(F)F)c(OC)c1 [Compound 1]	C (C: EC50 of the compound≥3*EC50 of the reference compound)	1000 to 5000	C (C: GI50 of the compound ≥ 3 * GI50 of the reference compound)
		1.52	3.97	6.04	COc1cc(C(=O)N(C)C)ccc1NCC#Cc1nc2c(NC3CC[C@@H](N4CC5(COC5)C4)C[C@@H]3F)cccn2c1CC(F)(F)F (some centres unmarked) [Compound 47]	B (B: EC50 of the reference compound<EC50 of the compound≤3.0*EC50 of the reference compound)		C (C: GI50 of the compound ≥ 3 * GI50 of the reference compound)

Second part, the molecule before the results:

SMILES	EC50 (p53 Y220C [1]) [nM]	GI50 (BxPC-3 cells) [nM]	efflux ratio at 120 min, 10 μM [3]	Papp A→B at 120 min, 10 μM [3] [×10⁻⁶ cm/s]	Papp B→A at 120 min, 10 μM [3] [×10⁻⁶ cm/s]	Compound EC50 (nM)/Reference compound EC50 (nM) (p53 Y220C [2])	GI50 (NUGC-3 cells) [nM]	Compound GI50 (nM)/Reference compound GI50 (nM) (NUGC-3 cells)
CNC(=O)c1ccc(NCC#Cc2nc3c(NC4CC[C@@H](N5CC6(CCC6)C5)C[C@@H]4F)cccn3c2CC(F)(F)F)c(OC)c1 (some centres unmarked) [Compound 42]			1.72	2.16	3.72	B (B: EC50 of the reference compound<EC50 of the compound≤3.0*EC50 of the reference compound)	< 1000	B (B: GI50 of the reference compound < GI50 of the compound ≤ 3.0 * GI50 of the reference compound)
CNC(=O)c1ccc(NCC#Cc2nc3c(N[C@H]4CC[C@H](N5CC6(COC6)C5)CC4)cccn3c2CC(F)(F)F)c(OC)c1 [Compound 9]	100 to 500	< 1000				B (B: EC50 of the reference compound<EC50 of the compound≤3.0*EC50 of the reference compound)	< 1000	B (B: GI50 of the reference compound < GI50 of the compound ≤ 3.0 * GI50 of the reference compound)
CNC(=O)c1ccc(NCC#Cc2nc3c(NC4CCS(=O)(=O)CC4)cccn3c2CC(F)(F)F)c(OC)c1 [Compound 10]	100 to 500	1000 to 5000				C (C: EC50 of the compound≥3*EC50 of the reference compound)	1000 to 5000	C (C: GI50 of the compound ≥ 3 * GI50 of the reference compound)
COc1cc(S(C)(=O)=O)ccc1NCC#Cc1nc2c(NC3CCN(C)CC3)cccn2c1CC(F)(F)F [Compound 4]	100 to 500	< 1000				A (A: EC50 of the compound≤EC50 of the reference compound)	1000 to 5000	B (B: GI50 of the reference compound < GI50 of the compound ≤ 3.0 * GI50 of the reference compound)
